Where two headings read alike, the source gives them in different places.
Columns and labels:
[1] = test system: tryptophan auxotrophs with wild-type trpS allele able to actively transport tryptophan; assay: Growth response to tryptophan, auxotrophs with wild-type trpS and active transport; type: cell-based, Escherichia coli; settings: minimal medium
[2] = test system: anthranilate synthase (wild-type strains); settings: read-out: tryptophan concentration giving about 50% inhibition of anthranilate synthase activity; cited from earlier work
[3] = test system: anthranilate synthase of feedback-resistant mutants; settings: cited from earlier work
[4] = test system: tryptophan auxotroph unable to actively transport tryptophan (JP7847); assay: Growth response to tryptophan, trpS+ auxotroph defective in active transport; type: cell-based, Escherichia coli; settings: minimal medium
Excerpt: (§1) JP6006 is derived from JP4153 by introduction of ΔtrpLE1413 by P1 transduction using TN10 as a linked marker and isolation of a tetracycline-sensitive derivative, followed by introduction of sac^+ by P1 transduction, using a P1 lysate grown on sac^+ strain GA122 (Alaeddinoglu, N. G. and H. P. Charles. (1979). J. Gen. Microbiol. 110: 47-59). JP4153 is aroF363 aroG103(FBR) aroH371(FBR) trpE382(FBR) trpR363 tyrR366 trpS378 aroP579 mtr-24 tna-1. JP7847 is a trpS^+ derivative of JP6006, isolated by P1 transduction.
(§2) Cells were grown in minimal medium supplemented with different levels of tryptophan at 30° C. Growth was measured by optical density with a Klett colorimeter and doubling times were calculated from the exponential phase of each growth curve.

[5] = test system: transport negative tryptophan auxotroph carrying trpS378 (JP6006); assay: Growth response to tryptophan, trpS378 auxotroph defective in active transport; type: cell-based, Escherichia coli
Excerpt: as §1, §2

[6] = molecular target: anthranilate synthase encoded by trpE382 (Escherichia coli, UniProt P00895); assay: Feedback inhibition of anthranilate synthase by tryptophan, trpE382 enzyme; type: biochemical
[7] = molecular target: anthranilate synthase encoded by trpE483 (Escherichia coli, UniProt P00895); assay: Feedback inhibition of anthranilate synthase by tryptophan, trpE483 enzyme; type: biochemical; settings: tryptophan 13.5 g/l
Excerpt: Plasmid pMU3018 (FIG. 6) carries the tip promoter, the trpE gene and part of the trpD gene on a 2.9 kb SmaI HindIII fragment. pMU3018 is derived from pMU578, which is a single-copy Tp^R plasmid carrying a galK'-lac'ZA fusion, similar to the promoter cloning vector pMU575 (Andrews, A. E., B. Lawley, and A. J. Pittard. (1991). J. Bacteriol. 173: 5068-5078), but with a SmaI EcoRI BglII linker replacing the SmaI site, and the DraI fragments removed, deleting lacY and lacA. If pMU3018 DNA is digested with these two enzymes and the fragments electrophoresed in a low melting point agarose gel it is a simple matter to separate and purify the trpEtrpD' 2.9 kb fragment and the larger 13 kb vector fragment. This 2.9 kb fragment was mutagenised with 50 mM nitrous acid for 60 minutes following the method of Ray et al. (Ray, J. M., C. Yanofsky and R. Bauerle. (1988). J. Bacteriol. 170: 5500-5506), except that spermine (1 mM) was added to the mutagenesis mixture. […]

[8] = molecular target: T1, anthranilate synthase encoded by trpE476 (Escherichia coli, UniProt P00895); assay: Feedback inhibition of anthranilate synthase by tryptophan, trpE476 enzyme; type: biochemical
T1 construct: plasmid pMU3019 in trpE-deleted JP6768 (trpDCBA functional), also trpE476DCBA on pMU91
Excerpt: Plasmid pMU3018 (FIG. 6) carries the tip promoter, the trpE gene and part of the trpD gene on a 2.9 kb SmaI HindIII fragment. pMU3018 is derived from pMU578, which is a single-copy Tp^R plasmid carrying a galK'-lac'ZA fusion, similar to the promoter cloning vector pMU575 (Andrews, A. E., B. Lawley, and A. J. Pittard. (1991). J. Bacteriol. 173: 5068-5078), but with a SmaI EcoRI BglII linker replacing the SmaI site, and the DraI fragments removed, deleting lacY and lacA. If pMU3018 DNA is digested with these two enzymes and the fragments electrophoresed in a low melting point agarose gel it is a simple matter to separate and purify the trpEtrpD' 2.9 kb fragment and the larger 13 kb vector fragment. This 2.9 kb fragment was mutagenised with 50 mM nitrous acid for 60 minutes following the method of Ray et al. (Ray, J. M., C. Yanofsky and R. Bauerle. (1988). J. Bacteriol. 170: 5500-5506), except that spermine (1 mM) was added to the mutagenesis mixture. After mutagenesis, the fragment was religated with the larger 13 kb fragment and the products of ligation were transformed into strain JP6768, an E. coli strain which is trpR^-, and in which the trpE gene has been deleted from the chromosome but trpDCB and A are fully functional (ΔtrpLE1413 (Miozzari, G. F. and C. Yanofsky. (1978). J. Bacteriol. 133: 1457-1466). Approximately 2,000 transformants were selected on Luria agar containing trimethoprim. These were screened for growth on minimal medium supplemented with the tryptophan analogue 5-fluorotryptophan at 15 mM. Clones which grew were potential feedback-resistant mutants altered in the enzyme anthranilate synthase. The anthranilate synthase activity of each of these clones was assayed in the presence of very high levels of tryptophan (13.5 g/l) using the assay described in Cho, K-O. and C. Yanofsky. (1988). J. Mol. Biol. 204: 41-50. […] The mutant allele present in this strain was called trpE483. […] FIG. 4 compares the feedback sensitivity of anthranilate synthase from a strain with the wild-type allele (JP6768/pMU3018) and strains with the trpE483 allele (JP6768/pMU3025) and with the trpE476 allele (JP6768/pMU3019).
The effect of temperature of incubation on both stability and productivity for an overproducing strain carrying the trpS378 allele and a plasmid carrying the trp operon encoding a feedback-resistant anthranilate synthase, is shown in FIG. 2. Low temperatures favour high stability and low productivity, whilst higher temperatures favour productivity at the expense of stability. […] The data in FIG. 2 is for JP6015/pMU91 and the primary selection is for Ser^+. JP6015 is derived from JP4153 (see Example 4) by introduction of sac^+ by transduction,and introduction of serA^- by cotransduction with a closely linked Tn10 transposon, and subsequent selection of a tetracycline sensitive derivative. pMU91 is a plasmid derived from pSC101 (Cohen, S. N. and A. C. Chang (1977). J. Bacteriol. 132: 734-737), carrying Tc^R, trpE476DCBA and serA^+ (see FIG. 9). The trpE476DCBA alelle was isolated using the specialized transducing phage .PHI.80pt190h (Herschfield, V. et al (1974). Proc. Natl. Acad. Sci. USA 71:3455-3459). A trpE^- strain carrying .PHI.80pt190h was plated on minimal medium containing 1 mM 5-methyltryptophan (5MT). A pool of cells was induced by ultraviolet light to produce a lysate which was used in a subsequent transduction, selecting Trp^+ 5MTR transductants. […]

N[C@@H](Cc1c[nH]c2ccccc12)C(=O)O [tryptophan, L-tryptophan]
tryptophan level supporting growth at a fast rate [1]: 50 µM
IC50 [2]: ~20 µM
IC50 ([3]; mutants conferring higher feedback-resistance (Aiba et al. 1982), read-out: 50% inhibition values): > 20 mM
IC50 ([3]; mutants typically chosen for tryptophan overproduction (Aiba et al., CA 1182409), read-out: tryptophan concentration at which the 50% inhibition figure occurred): ~13 mM
tryptophan level required for optimal growth [4]: ~ 10^-3 M
tryptophan level at which the strain grows with a normal doubling time ([4]; FIG. 1): ≥ 1 mM
tryptophan required for good growth ([5]; 30° C., FIG. 1): at least 5 mM
tryptophan concentration before maximum growth rate is achieved ([5]; minimal medium): 5 mM
inhibition of activity ([6]; 1 mM tryptophan): less than 10%
inhibition of anthranilate synthase ([6]; tryptophan 12 g/l (60 mM)): 60-80%
inhibition of activity [7]: less than 10%
inhibition of activity ([8]; 1 mM tryptophan): less than 10%
anthranilate synthase activity, % of full activity ([8]; 10 mM L-tryptophan): 70%
resistance to feedback inhibition ([8]; tryptophan 1 g/l): good resistance
inhibition of anthranilate synthase ([8]; tryptophan 12 g/l (60 mM)): 60-80%
inhibition of activity ([8]; tryptophan 13.5 g/l): more than 60%

— patent US5756345A, “Production of tryptophan by the bacterium Escherichia coli” (Degussa Aktiengesellschaft, priority 1995, dated 1998)
